# Test results as given in ChEMBL document CHEMBL1641379, “PEGylated derivatives of cystamine as enhanced treatments for nephropathic cystinosis” (Bioorg Med Chem Lett, 2011).
# Activity calls are given as the source filed them. The calls are words filed in the database; no cut-off is given here.
# Columns and labels:
# Fibroblast = assay: Antinephropathic cystinosis activity in human cystinotic fibroblast assessed as decrease in cystine level at 50 uM after 24 hrs by Bradford reagent method; type: functional, cell-based
# [1] = Cytotoxicity against human cystinotic fibroblast at 50 uM after 72 hrs by alamar blue assay; type: cell-based
SMILES,inhibition (Fibroblast),Activity [1]
COCCOCCOCCNC(=O)CCCC(=O)NCCSSCCNC(=O)CCCC(=O)NCCOCCOCCOC,Active,Non-toxic
COCCOCCOCCNC(=O)CCC(=O)NCCSSCCNC(=O)CCC(=O)NCCOCCOCCOC,Active,Non-toxic
COCCOCCOCCOCCNC(=O)CCCC(=O)NCCSSCCNC(=O)CCCC(=O)NCCOCCOCCOCCOC,Active,–
NCCS [CYSTEAMINE],Active,Non-toxic
COCCOCCOCCOCCNC(=O)CCC(=O)NCCSSCCNC(=O)CCC(=O)NCCOCCOCCOCCOC,Active,Non-toxic
